The values that follow come from publication PMC6425950 (Bioorganic & medicinal chemistry, 2019).

Each structure is given as a SMILES string.

One experiment relates to HCV genotype 1b RNA replication in Huh-7 cells (subgenomic HCV replicon). As to the kind of experiment: HCV subgenomic replicon assay, inhibition of HCV RNA replication. The class given is cell-based, Hepatitis C virus. The note with it: HCV genotype 1b replicon, Huh-7 cells.
Take `Nc1nc2c(ncn2[C@@H]2O[C@H](CO)[C@@H](O)[C@@]2(F)Cl)c(=O)[nH]1` [Compound 48, 2-Amino-9-((2R,3R,4R,5R)-3-chloro-3-fluoro-4-hydroxy-5-(hydroxymethyl)tetrahydrofuran-2-yl)-1,9-dihydro-6H-purin-6-one]: the “anti-HCV activity: none at concentration up to” value (from here on “anti-HCV activity: none”) is more than 10 µM.

As to `Nc1nc2c(ncn2[C@@H]2O[C@H](CO)[C@@H](O)[C@@]2(F)Br)c(=O)[nH]1` [Compound 49, 2-amino-9-((2R,3R,4R,5R)-3-bromo-3-fluoro-4-hydroxy-5-(hydroxymethyl)tetrahydrofuran-2-yl)-1,9-dihydro-6H-purin-6-one], the “anti-HCV activity: none” value was more than 10 µM.

As to `CC(C)OC(=O)[C@H](C)NP(=O)(OC[C@H]1O[C@@H](n2cnc3c(=O)[nH]c(N)nc32)[C@](F)(Cl)[C@@H]1O)Oc1ccccc1` (stereo partly drawn) [Compound 50, Isopropyl ((((2R,3R,4R,5R)-5-(2-amino-6-oxo-1,6-dihydro-9H-purin-9-yl)-4-chloro-4-fluoro-3-hydroxytetrahydrofuran-2-yl)methoxy)(phenoxy)phosphoryl)-L-alaninate], the “anti-HCV activity: none” value was more than 10 µM. In the case of `CC(C)OC(=O)[C@H](C)N[P@](=O)(OC[C@H]1O[C@@H](n2cnc3c(=O)[nH]c(N)nc32)[C@](F)(Br)[C@@H]1O)Oc1ccccc1` [Compound 51, Isopropyl ((((2R,3R,4R,5R)-5-(2-amino-6-oxo-1,6-dihydro-9H-purin-9-yl)-4-bromo-4-fluoro-3-hydroxytetrahydrofuran-2-yl)methoxy)(phenoxy)phosphoryl)-L-alaninate], the “anti-HCV activity: none” value was more than 10 µM.

Still in this experiment, the particulars now being: HCV replicon; statement in conclusion.
Consider `CC(C)OC(=O)[C@H](C)NP(=O)(OC[C@H]1O[C@@H](n2ccc(=O)[nH]c2=O)[C@](F)(Cl)[C@@H]1O)Oc1ccccc1` (stereo partly drawn) [Compound 19, Isopropyl ((((2R,3R,4R,5R)-4-chloro-5-(2,4-dioxo-3,4-dihydropyrimidin-1(2H)-yl)-4-fluoro-3-hydroxytetrahydrofuran-2-yl)methoxy)(phenoxy)phosphoryl)-L-alaninate], for which the “anti-HCV activity (in words)” value is recorded as “low to sub-micromolar range”.

With `CC(C)OC(=O)[C@H](C)NP(=O)(OC[C@H]1O[C@@H](n2ccc(=O)[nH]c2=O)[C@](F)(Br)[C@@H]1O)Oc1ccccc1` (stereo partly drawn) [Compound 20, Isopropyl ((((2R,3R,4R,5R)-4-bromo-5-(2,4-dioxo-3,4-dihydropyrimidin-1(2H)-yl)-4-fluoro-3-hydroxytetrahydrofuran-2-yl)methoxy)(phenoxy)phosphoryl)-L-alaninate], the “anti-HCV activity (in words)” value is “low to sub-micromolar range”. As to `Nc1ccn([C@@H]2O[C@H](CO)[C@@H](O)[C@@]2(F)Br)c(=O)n1` [Compound 27, 4-Amino-1-((2R,3R,4R, 5R)-3-bromo-3-fluoro-4-hydroxy-5-(hydroxymethyl)tetrahydrofuran-2-yl)pyrimidin-2(lH)-one], the “anti-HCV activity (in words)” value is recorded as “low to sub-micromolar range”. On to `CC(C)OC(=O)[C@H](C)NP(=O)(OC[C@H]1O[C@@H](n2ccc(N)nc2=O)[C@](F)(Br)[C@@H]1O)Oc1ccccc1` (stereo partly drawn) [Compound 32, Isopropyl ((((2R,3R,4R,5R)-5-(4-amino-2-oxopyrimidin-1(2H)-yl)-4-bromo-4-fluoro-3-hydroxytetrahydrofuran-2-yl)methoxy)(phenoxy)phosphoryl)-L-alaninate], for which the “anti-HCV activity (in words)” value is “low to sub-micromolar range”. In the case of `CC(C)OC(=O)[C@H](C)NP(=O)(OC[C@H]1O[C@@H](n2ccc(N)nc2=O)[C@](F)(Cl)[C@@H]1O)Oc1ccccc1` (stereo partly drawn) [Compound 35, Isopropyl ((((2R,3R,4R,5R)-5-(4-amino-2-oxopyrimidin-1(2H)-yl)-4-chloro-4-fluoro-3-hydroxytetrahydrofuran-2-yl)methoxy) (phenoxy)phosphoryl)-L-alaninate], the “anti-HCV activity (in words)” value is given as “low to sub-micromolar range”. As to `CC(C)OC(=O)[C@H](C)NP(=O)(OC[C@H]1O[C@@H](n2cnc3c(N)ncnc32)[C@](F)(Cl)[C@@H]1O)Oc1ccccc1` (stereo partly drawn) [Compound 42, Isopropyl ((((2R,3R,4R,5R)-5-(6-amino-9H-purin-9-yl)-4-chloro-4-fluoro-3-hydroxytetrahydrofuran-2-yl)methoxy) (phenoxy)phosphoryl)-L-alaninate], the “anti-HCV activity (in words)” value is on record as “low to sub-micromolar range”.

Staying with this experiment, now noted: Hepatitis C virus, GETYPE1B, Huh-7, read-out: Anti-HCV activity EC90.
Broadly, the EC90 is the concentration needed for an effect of 90%. As to `Nc1ccn([C@@H]2O[C@H](CO)[C@@H](O)[C@@]2(F)Cl)c(=O)n1` [Compound 26, 4-Amino-1-((2R,3R,4R,5R)-3-chloro-3-fluoro-4-hydroxy-5-(hydroxymethyl)tetrahydrofuran-2-yl)pyrimidin-2(1H)-one], the EC90 is more than 10 µM.

For the compound `Nc1ncnc2c1ncn2[C@@H]1O[C@H](CO)[C@@H](O)[C@@]1(F)Cl` [Compound 40, (2R, 3R, 4R, 5R)-5-(6-Amino-9H-purin-9-yl)-4-chloro-4-fluoro-2-(hydroxymethyl)tetrahydrofuran-3-ol], the 90% effect concentration (EC90) is more than 10 µM. `Nc1ncnc2c1ncn2[C@@H]1O[C@H](CO)[C@@H](O)[C@@]1(F)Br` [Compound 41, (2R, 3R, 4R, 5R)-5-(6-Amino-9H-purin-9-yl)-4-bromo-4-fluoro-2-(hydroxymethyl)tetrahydrofuran-3-ol]: the 90% effect concentration (EC90) is more than 10 µM. Turning to `CC(C)OC(=O)[C@H](C)NP(=O)(OC[C@H]1O[C@@H](n2cnc3c(N)ncnc32)[C@](F)(Br)[C@@H]1O)Oc1ccccc1` (stereo partly drawn) [Compound 43, Isopropyl ((((2R,3R,4R,5R)-5-(6-amino-9H-purin-9-yl)-4-bromo-4-fluoro-3-hydroxytetrahydrofuran-2-yl)methoxy)(phenoxy)phosphoryl)-L-alaninate], the EC90 was more than 10 µM. For `Nc1nc2c(ncn2[C@@H]2O[C@H](CO)[C@@H](O)[C@@]2(F)Br)c(=O)[nH]1` [Compound 49, 2-amino-9-((2R,3R,4R,5R)-3-bromo-3-fluoro-4-hydroxy-5-(hydroxymethyl)tetrahydrofuran-2-yl)-1,9-dihydro-6H-purin-6-one], the EC90 was more than 10 µM. Take `CC(C)OC(=O)[C@H](C)NP(=O)(OC[C@H]1O[C@@H](n2cnc3c(=O)[nH]c(N)nc32)[C@](F)(Cl)[C@@H]1O)Oc1ccccc1` (stereo partly drawn) [Compound 50, Isopropyl ((((2R,3R,4R,5R)-5-(2-amino-6-oxo-1,6-dihydro-9H-purin-9-yl)-4-chloro-4-fluoro-3-hydroxytetrahydrofuran-2-yl)methoxy)(phenoxy)phosphoryl)-L-alaninate]: the EC90 was more than 10 µM.
